Reference: patent US9303012B2, “Pyridine-2-amides useful as CB2 agonists” (Hoffmann-La Roche Inc., priority 2012, dated 2016)

Key:
[1] = molecular target: human CB1 receptors (Homo sapiens (Human), UniProt P21554); experiment: functional cAMP assay, CHO cells expressing human CB1 receptors; assay type: cell-based
Procedure, shortened: (§1)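 Cells are seeded 17-24 h ahead, then preincubated in Krebs Ringer bicarbonate buffer with 1 mM IBMX at 30 °C. Compounds act for 30 min at 30 °C, after which lysis and cAMP detection reagents are added for 2 h at room temperature. Time-resolved FRET gives cAMP content, and EC50 values are fitted from it.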

[2] = molecular target: human CB2 receptors (Homo sapiens (Human), UniProt P34972); experiment: functional cAMP assay, CHO cells expressing human CB2 receptors; assay type: cell-based
Procedure, shortened: as §1

Sequence of human CB1 receptors (P21554 whole entry): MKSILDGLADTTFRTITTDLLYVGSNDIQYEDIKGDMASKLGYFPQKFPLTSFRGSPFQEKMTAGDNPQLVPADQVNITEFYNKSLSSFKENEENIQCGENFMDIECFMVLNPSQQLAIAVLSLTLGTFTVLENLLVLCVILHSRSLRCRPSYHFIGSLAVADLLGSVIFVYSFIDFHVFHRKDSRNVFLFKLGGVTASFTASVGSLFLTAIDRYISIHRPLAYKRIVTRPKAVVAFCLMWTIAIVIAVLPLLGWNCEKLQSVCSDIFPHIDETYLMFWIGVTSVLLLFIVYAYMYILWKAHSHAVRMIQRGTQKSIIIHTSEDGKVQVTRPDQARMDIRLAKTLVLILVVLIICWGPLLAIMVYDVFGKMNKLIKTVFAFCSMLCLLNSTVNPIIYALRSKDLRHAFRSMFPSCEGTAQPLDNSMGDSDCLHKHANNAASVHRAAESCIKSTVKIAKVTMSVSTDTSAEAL
Sequence of human CB2 receptors (P34972 whole entry): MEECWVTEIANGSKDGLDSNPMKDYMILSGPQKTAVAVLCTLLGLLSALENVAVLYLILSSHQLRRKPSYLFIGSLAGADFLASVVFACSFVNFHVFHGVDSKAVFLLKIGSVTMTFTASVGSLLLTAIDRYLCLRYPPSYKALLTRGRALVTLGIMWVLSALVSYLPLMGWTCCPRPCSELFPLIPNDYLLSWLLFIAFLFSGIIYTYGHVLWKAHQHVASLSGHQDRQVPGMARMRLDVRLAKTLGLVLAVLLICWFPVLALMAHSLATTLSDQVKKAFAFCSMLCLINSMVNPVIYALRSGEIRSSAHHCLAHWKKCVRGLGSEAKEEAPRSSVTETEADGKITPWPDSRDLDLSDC

| Structure (SMILES) | EC50 [1] [nM] | EC50 [2] [nM] |
| --- | --- | --- |
| NC(=O)[C@@H]1CC(F)(F)CN1C(=O)c1ccc(C2(F)CCC2)c(OCC2CC2)n1 [Example 130, (2S)-1-[6-(Cyclopropylmethoxy)-5-(1-fluorocyclobutyl)pyridine-2-carbonyl]-4,4-difluoropyrrolidine-2-carboxamide] | > 10000 | 2.3 |
| NC(=O)C1CS(=O)(=O)CN1C(=O)c1ccc(C2(O)CCC2)c(OCC2CC2)n1 (stereo not shown) [Example 131, 3-[6-(Cyclopropylmethoxy)-5-(1-hydroxycyclobutyl)pyridine-2-carbonyl]-1,1-dioxo-1,3-thiazolidine-4-carboxamide] | > 10000 | 62.5 |
| CC1(O)C[C@@H](C(N)=O)N(C(=O)c2ccc(N3CC(F)(F)C3)c(OCC3CC3)n2)C1 (stereo partly drawn) [Example 132, (2S)-1-[6-(Cyclopropylmethoxy)-5-(3,3-difluoroazetidin-1-yl)pyridine-2-carbonyl]-4-hydroxy-4-methylpyrrolidine-2-carboxamide] | > 10000 | 30.1 |
| NC(=O)C1CS(=O)(=O)CN1C(=O)c1ccc(C2(F)CCC2)c(OCC2CC2)n1 (stereo not shown) [Example 133, 3-[6-(Cyclopropylmethoxy)-5-(1-fluorocyclobutyl)pyridine-2-carbonyl]-1,1-dioxo-1,3-thiazolidine-4-carboxamide] | > 10000 | 10.2 |
| NC(=O)[C@@H]1CC(F)(F)CN1C(=O)c1ccc(C2(F)COC2)c(OCC2CC2)n1 [Example 134, (2S)-1-[6-(Cyclopropylmethoxy)-5-(3-fluorooxetan-3-yl)pyridine-2-carbonyl]-4,4-difluoropyrrolidine-2-carboxamide] | > 10000 | 52.2 |
| NC(=O)C1CC2(CC2)CN1C(=O)c1ccc(N2CC(F)(F)C2)c(OCC2CC2)n1 (stereo not shown) [Example 135, 5-[6-(Cyclopropylmethoxy)-5-(3,3-difluoroazetidin-1-yl)pyridine-2-carbonyl]-5-azaspiro[2.4]heptane-6-carboxamide] | > 10000 | 15.6 |
| O=C(c1ccc(N2CC(F)(F)C2)c(OCC2CC2)n1)N1CCC(C(O)C(F)(F)F)C1 (stereo not shown) [Example 136, [6-(Cyclopropylmethoxy)-5-(3,3-difluoroazetidin-1-yl)pyridin-2-yl]-[3-(2,2,2-trifluoro-1-hydroxyethyl)pyrrolidin-1-yl]methanone] | > 10000 | 32.9 |
| O=C(c1ccc(N2CC(F)(F)C2)c(OCC2CC2)n1)N1CCC(CO)(C(F)(F)F)C1 (stereo not shown) [Example 137, [6-(Cyclopropylmethoxy)-5-(3,3-difluoroazetidin-1-yl)pyridin-2-yl]-[3-(hydroxymethyl)-3-(trifluoromethyl)pyrrolidin-1-yl]methanone] | > 10000 | 53.8 |
| O=C(c1ccc(N2CC(F)(F)C2)c(OCC2CC2)n1)N1CCC(O)(C(F)(F)F)C1 (stereo not shown) [Example 138, [6-(Cyclopropylmethoxy)-5-(3,3-difluoroazetidin-1-yl)pyridin-2-yl]-[3-hydroxy-3-(trifluoromethyl)pyrrolidin-1-yl]methanone] | > 10000 | 83.5 |
| O=C(c1ccc(N2CC(F)(F)C2)c(OCC2CC2)n1)N1CC(O)(C(F)(F)F)C1 [Example 139, [6-(Cyclopropylmethoxy)-5-(3,3-difluoroazetidin-1-yl)pyridin-2-yl]-[3-hydroxy-3-(trifluoromethyl)azetidin-1-yl]methanone] | > 10000 | 42 |
| C[C@]1(O)C[C@@H](C(N)=O)N(C(=O)c2ccc(N3CC(F)(F)C3)c(OCC3CC3)n2)C1 [Example 140, (+)-(2S)-1-[6-(Cyclopropylmethoxy)-5-(3,3-difluoroazetidin-1-yl)pyridine-2-carbonyl]-4-hydroxy-4-methylpyrrolidine-2-carboxamide] | > 10000 | 40.6 |
| O=C(c1ccc(C2CC2)c(OCC2CC2)n1)N1CCC(C(O)C(F)(F)F)C1 (stereo not shown) [Example 141, [5-Cyclopropyl-6-(cyclopropylmethoxy)pyridin-2-yl]-[3-(2,2,2-trifluoro-1-hydroxyethyl)pyrrolidin-1-yl]methanone] | > 10000 | 262 |
| O=C(c1ccc(C2CC2)c(OCC2CC2)n1)N1CCC(CO)(C(F)(F)F)C1 (stereo not shown) [Example 142, [5-Cyclopropyl-6-(cyclopropylmethoxy)pyridin-2-yl]-[3-(hydroxymethyl)-3-(trifluoromethyl)pyrrolidin-1-yl]methanone] | > 10000 | 26.3 |
| O=C(c1ccc(C2CC2)c(OCC2CC2)n1)N1CCC(O)(C(F)(F)F)C1 (stereo not shown) [Example 143, [5-Cyclopropyl-6-(cyclopropylmethoxy)pyridin-2-yl]-[3-hydroxy-3-(trifluoromethyl)pyrrolidin-1-yl]methanone] | > 10000 | 87.8 |
| O=C(c1ccc(C2CC2)c(OCC2CC2)n1)N1CC(O)(C(F)(F)F)C1 [Example 144, [5-Cyclopropyl-6-(cyclopropylmethoxy)pyridin-2-yl]-[3-hydroxy-3-(trifluoromethyl)azetidin-1-yl]methanone] | > 10000 | 73 |
| NC(=O)[C@@H]1CC2(CC2)CN1C(=O)c1ccc(N2CC(F)(F)C2)c(OCC2CC2)n1 [Example 145, (6S)-5-[6-(Cyclopropylmethoxy)-5-(3,3-difluoroazetidin-1-yl)pyridine-2-carbonyl]-5-azaspiro[2.4]heptane-6-carboxamide] | > 10000 | 356 |
| O=C(c1ccc(N2CC(F)(F)C2)c(OCC2CC2)n1)N1C[C@H]2COC[C@H]2C1 [Example 146, [(3aR,6aS)-1,3,3a,4,6,6a-Hexahydrofuro[3,4-c]pyrrol-5-yl]-[6-(cyclopropylmethoxy)-5-(3,3-difluoroazetidin-1-yl)pyridin-2-yl]methanone] | > 10000 | 167 |
| NC(=O)[C@@H]1CC(F)(F)CN1C(=O)c1ccc(N2CC(F)(F)C2)c(OCCF)n1 [Example 147, (2S)-1-[5-(3,3-Difluoroazetidin-1-yl)-6-(2-fluoroethoxyl)pyridine-2-carbonyl]-4,4-difluoro-pyrrolidine-2-carboxamide] | > 10000 | 1170 |
| O=C(c1ccc(N2CC(F)(F)C2)c(OCC2CC2)n1)N1CC(F)(CO)C1 [Example 148, [6-(Cyclopropylmethoxy)-5-(3,3-difluoroazetidin-1-yl)-2-pyridyl]-[3-fluoro-3-(hydroxymethyl)azetidin-1-yl]methanone] | > 10000 | 451 |
| CC1(F)CN(C(=O)c2ccc(N3CC(F)(F)C3)c(OCC3CC3)n2)C1 [Example 149, [6-(Cyclopropylmethoxy)-5-(3,3-difluoroazetidin-1-yl)-2-pyridyl]-(3-fluoro-3-methyl-azetidin-1-yl)methanone] | > 10000 | 79 |
| O=C(c1ccc(N2CC(F)(F)C2)c(OCC2CC2)n1)N1CC(F)(C2CC2)C1 [Example 150, (3-Cyclopropyl-3-fluoroazetidin-1-yl)-[6-(cyclopropylmethoxy)-5-(3,3-difluoroazetidin-1-yl)pyridin-2-yl]methanone] | > 10000 | 8 |
| NC(=O)[C@@H]1N(C(=O)c2ccc(N3CC(F)(F)C3)c(OCC3CC3)n2)CCC12CC2 [Example 151, (−)-5-[6-(Cyclopropylmethoxy)-5-(3,3-difluoroazetidin-1-yl)pyridine-2-carbonyl]-5-azaspiro[2.4]heptane-4-carboxamide] | > 10000 | 818 |
| NC(=O)[C@H]1N(C(=O)c2ccc(N3CC(F)(F)C3)c(OCC3CC3)n2)CCC12CC2 [Example 152, (+)-5-[6-(Cyclopropylmethoxy)-5-(3,3-difluoroazetidin-1-yl)pyridine-2-carbonyl]-5-azaspiro[2.4]heptane-4-carboxamide] | > 10000 | 338 |
